From patent publication US8420598B2, “Mono modified exendin with polyethylene glycol or its derivatives and uses thereof” (B & L Delipharm Corp., priority 2007, dated 2013)
Like-named read-outs stand apart in the source and are kept apart here.

Key:
[1] = rat, in vivo, sc
Protocol: SD rats weighing 200 g were subcutaneously injected with samples at a dose of 1 nmol/rat (4.18 μg/rat), followed by sampling blood through a tube inserted into the jugular vein. The blood samples were monitored for drug level using an ELISA kit.

db/db mice [2] = assay: Animal model test: oral glucose tolerance after s.c. injection; type: in vivo; conditions: 1 nmol/kg s.c. 30 min before oral glucose, FIG. 8
Protocol: 30 min before, at the time of, and 15, 30, 60, 120 and 180 min after the oral administration of glucose, blood samples were taken from the tail vein and monitored for glucose level.

db/db mice [3] = assay: Measurement of anti-diabetic activity in animals (blood glucose monitoring); type: in vivo; conditions: for time blood glucose kept at normal levels (<150 mg/dL) after injection: s.c., same dosage, db/db mice
[4] = test system: pancreatic islet cells of Sprague Dawley rats; assay: Assay for promoting insulin secretion (insulin ELISA); type: cell-based; conditions: for EC50 / insulin secretory capacity: rat islet cells, 0.1-100 nM; for EC50: 16.7 mM glucose, 2 hours; for insulin secretory capacity: FIG. 5
Protocol: Cells used for this assay were pancreatic islet cells of Sprague Dawley rats, which could be isolated by collagenase digestion and then Ficoll gradient centrifugation. After being cultured for 2˜3 days in an incubator, the isolated pancreatic islet cells were suspended in 1 ml of KRH buffer (16.7 mM glucose) at a density of 20 cells per well into 24-well plates. […] Then, […] of the culture was taken from each well and analyzed for insulin level using an insulin ELISA kit.

[5] = rat, in vivo, iv

Substance: Lys^27-PEG2k-exendin-4: exendin-4 modified at lysine-27 with 2 kDa PEG (mPEG-SPA), Example 2
- time to reach basal line (<2 ng/mL) after administration [1]: 4 h
- activity by area under the glucose curve 0 to 180 min (db/db mice [2]): activity similar to that of natural exendin-4
- time blood glucose kept at normal levels (<150 mg/dL) after injection (db/db mice [3]): about 6 hours
- EC50 [4]: 3.11 nM
- insulin secretory capacity [4]: superior to that of the other modified exendin-4, and similar to that of natural exendin-4

Substance: N^ter-PEG2k-exendin-4: exendin-4 modified at the N-terminus with 2 kDa mPEG-propionaldehyde, Example 1
- activity by area under the glucose curve 0 to 180 min (db/db mice [2]): low effects
- EC50 [4]: 136 nM
- insulin secretory capacity [4]: low insulin secretory capacity

Substance: PEG5k-exendin-4: exendin-4 modified at lysine-27 with 5 kDa mPEG-SPA, Example 2
- time blood glucose kept at normal levels (<150 mg/dL) after injection (db/db mice [3]): 12 h

Substance: PEG10k-exendin-4: exendin-4 modified at lysine-27 with 10 kDa mPEG-SPA, Example 2
- time blood glucose kept at normal levels (<150 mg/dL) after injection (db/db mice [3]): 18 h

Substance: PEG20k-Exendin-4 (bi-branched): exendin-4 modified with 20 kDa bi-branched PEG, Example 3
- time blood glucose kept at normal levels (<150 mg/dL) after injection (db/db mice [3]): about 8 hours
- AUC [5]: 5717 ± 1015 ng·h/mL
- Elimination Half Life [5]: 28.0 ± 10.4 h
- Volume of Distribution [5]: 25.45 ± 16.84 mL

Substance: PEG20k-exendin-4: exendin-4 modified at lysine-27 with 20 kDa mPEG-SPA, Example 2
- Elimination Half Life [1]: 22.0 ± 1.7 h
- time blood glucose kept at normal levels (<150 mg/dL) after injection (db/db mice [3]): about 36 hours
- residual activity (insulin secretion) ([4]; 10 nM, relative to natural exendin-4, FIG. 9): ≥ 40%

Substance: PEG23k-Exendin-4 (tri-branched): exendin-4 modified at lysine-27 with 23 kDa tri-branched PEG, Example 3
- duration of medicinal efficacy (db/db mice [3]; dose of 5 nmol/kg): 12 to 18 h
- duration of medicinal efficacy (db/db mice [3]; dose of 10 nmol/kg): 36 to 48 h
- duration of medicinal efficacy (db/db mice [3]; dose of 20 nmol/kg): 72 to 96 h
- duration of useful medicinal effects (db/db mice [3]; dose of 50 nmol/kg): ≤ 120 h
- AUC [5]: 7659 ± 1365 ng·h/mL
- Elimination Half Life [5]: 25.1 ± 9.1 h
- Volume of Distribution [5]: 9.41 ± 1.57 mL
- promotion of insulin secretion, dose dependence ([4]; 0.1, 1, 10 and 100 nM, FIG. 16): promote insulin secretion in a dose-dependent manner
